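Grown in 96-well plates, cells were treated for 48 hours with each compound at five concentrations. Insufficient inhibition: endpoint recorded as highest concentration tested. Abbreviation: GI50, concentration required for 50% inhibition of growth. TGI marks complete inhibition of growth.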
How the values were obtained:
Assay in all cases: NCI tumour cell line growth inhibition, 48 h
COLO 205 colon = system: COLO 205 colon
HOP-62 NSCLC = system: HOP-62 NSCLC
OVCAR-5 ovarian = system: OVCAR-5 ovarian
CCRF-CEM leukemia = system: CCRF-CEM leukemia
SNB-19 CNS = system: SNB-19 CNS
OVCAR-3 ovarian = system: OVCAR-3 ovarian
U251 CNS = system: U251 CNS
SK-OV-3 ovarian = system: SK-OV-3 ovarian
CAKI-1 renal = system: CAKI-1 renal

Row | SMILES | TGI (COLO 205 colon) | TGI (HOP-62 NSCLC) | TGI (OVCAR-5 ovarian) | TGI (CCRF-CEM leukemia) | TGI (SNB-19 CNS) | TGI (OVCAR-3 ovarian) | TGI (U251 CNS) | TGI (SK-OV-3 ovarian) | TGI (CAKI-1 renal) | GI50 (COLO 205 colon) | GI50 (OVCAR-3 ovarian) | GI50 (SK-OV-3 ovarian)
1 | CCOP(=O)(OCC)C1C(=O)O[C@H]2CCCC[C@@H]12 (stereo not given in full) | > 100 µM | > 100 µM | > 100 µM | > 100 µM | > 100 µM | > 100 µM | > 100 µM | > 100 µM | > 100 µM |  |  | 
2 | NNC(=O)/C(=C/c1cccc([N+](=O)[O-])c1)NC(=O)c1ccccc1 | > 100 µM | > 100 µM | > 100 µM | > 100 µM | > 100 µM | > 100 µM | > 100 µM | > 100 µM | > 100 µM |  |  | 
3 | NC(N)=NS(=O)(=O)c1ccc(NC(=O)c2cccc3c(Nc4ccc(S(=O)(=O)N=C(N)N)cc4)c4ccc(Cl)cc4nc23)cc1 | > 100 µM | > 100 µM | > 100 µM | > 100 µM | > 100 µM | > 100 µM | > 100 µM | > 100 µM | > 100 µM |  |  | 
4 | C/C(=N\N(C)C)c1sc(-n2nc(-c3ccccc3)cc2-c2ccccc2)nc1C | > 100 µM | > 100 µM | 82.4 µM | > 100 µM | > 100 µM | > 100 µM | > 100 µM | > 100 µM | > 100 µM |  |  | 
5 | CCCCN(CCCC)C(=O)C(=O)CC(=O)c1ccc(Br)cc1 | > 100 µM | > 100 µM | > 100 µM | > 100 µM | > 100 µM | > 100 µM | > 100 µM | > 100 µM | > 100 µM |  |  | 
6 | COc1c(OC(C)=O)ccc(/C=C2\N=C(C)OC2=O)c1[N+](=O)[O-] | > 100 µM | > 100 µM | > 100 µM | > 100 µM | > 100 µM |  | > 100 µM | > 100 µM | > 100 µM |  |  | 
7 | Cc1ccc2c(c1)NC(c1ccc(C(=O)O)cc1)c1cccn1-2 (stereo not given) | > 100 µM | 58.6 µM | > 100 µM | > 100 µM | 94.6 µM | > 100 µM | > 100 µM | 51.8 µM | 72.7 µM |  |  | 
8 | Cn1nc(-c2ccccc2NC(=O)C(F)(F)F)c(=O)n(C)c1=S |  | > 100 µM | > 100 µM | > 100 µM | > 100 µM | 40.6 µM | > 100 µM | > 100 µM | 89.4 µM |  |  | 
9 | Cc1cc(Br)cc(C)c1NC(=O)C(=O)CC(=O)c1sc(-n2nc(-c3ccccc3)cc2-c2ccccc2)nc1C | > 100 µM | > 100 µM | > 100 µM | > 100 µM | > 100 µM | > 100 µM | > 100 µM | > 100 µM | > 100 µM |  |  | 
10 | O=C1C2=C(c3ccccc31)C(c1cccc(Cl)c1)NC(=S)N2 (stereo not given) | > 100 µM | > 100 µM | > 100 µM | > 100 µM | > 100 µM | > 100 µM | > 100 µM | > 100 µM | > 100 µM |  |  | 
11 | COc1ccc(-c2oc3cc(O)c(OC)c(O)c3c(=O)c2OC2OC(CO)C(O)C(O)C2O)cc1 (stereo not given) | > 100 µM |  |  | > 100 µM | > 100 µM | > 100 µM | > 100 µM | > 100 µM |  |  |  | 
12 | COC1C=C(Nc2cccc(Cl)c2)C(=O)C1 (stereo not given) | 22.1 µM | > 100 µM | > 100 µM | > 100 µM | > 100 µM | > 100 µM | > 100 µM | > 100 µM | > 100 µM |  |  | 
13 | C=C(c1ccccc1N)[C@@]1(O)C[C@H](/C(=C\C)CO)C[C@@H]1NCc1ccccc1 | 33 µM | > 100 µM |  | 57.2 µM | 79.5 µM | 45.8 µM | 33.3 µM | 73.7 µM |  |  |  | 
14 | CCOC(=O)C1C=C2O[C@@H]3OC4(CCCCC4)O[C@@H]3C2[C@H]2C(=O)C=CC(=O)[C@@]12C(=O)OC (stereo not given in full) | 22.4 µM | 36.3 µM | 31.7 µM | 9.94 µM | 22.9 µM | 22.1 µM | 21.5 µM | 32.2 µM | 31.3 µM |  |  | 
15 | CCOC(=O)/N=c1\ss/c(=N\C(=S)N(C)C)n1-c1ccccc1 | > 100 µM | > 100 µM | > 100 µM | > 100 µM | > 100 µM |  | 71.3 µM | > 100 µM | > 100 µM | > 100 µM | 23.2 µM | > 100 µM
16 | S=c1[nH]nc(COc2ccc(Cl)cc2)o1 | > 100 µM | > 100 µM | > 100 µM | > 100 µM | > 100 µM | > 100 µM | > 100 µM | > 100 µM | > 100 µM |  |  | 
17 | CC(C)=CC(=O)CC(=O)C(=O)Nc1ccc(C)c(C)c1 |  |  |  | > 100 µM | > 100 µM | > 100 µM | > 100 µM | > 100 µM | > 100 µM |  |  | 

Reference: PubChem BioAssay (NCI)
